Assay results published in ChEMBL document CHEMBL3632488, “Discovery of potent and selective cytotoxic activity of new quinazoline-ureas against TMZ-resistant glioblastoma multiforme (GBM)” (Eur J Med Chem, 2015).
Calls of active or inactive are those of the source. No cut-off for these calls is given here.

How the values were obtained:
[1] = Selectivity index, ratio of IC50 for normal human astrocytes to IC50 for human GBM2 cells
[2] = Antiproliferative activity against human GBM3 cells assessed as reduction in cell viability incubated for 72 hrs by WST-1 method; type: functional, cell-based; settings: GBM3, 72 h
[3] = Antiproliferative activity against human GBM3 cells assessed as reduction in cell viability at 10 uM incubated for 72 hrs by WST-1 method; type: functional; settings: GBM3, 72 h
[4] = Antiproliferative activity against human GBM2 cells assessed as reduction in cell viability incubated for 72 hrs by WST-1 method; type: functional, cell-based; settings: GBM2, 72 h
[5] = Antiproliferative activity against human GBM1 cells assessed as reduction in cell viability at 10 uM incubated for 72 hrs by WST-1 method; type: functional; settings: GBM1, 72 h
[6] = biological target: Translocator protein (Rattus norvegicus) (UniProt P16257); test: Displacement of [3H]PK11195 from TSPO receptor in Sprague-Dawley rat cerebral cortex membrane at 1 uM by radiometric competitive assay; type: tissue-based
[7] = biological target: Translocator protein (Rattus norvegicus) (UniProt P16257); test: Displacement of [3H]PK11195 from TSPO receptor in Sprague-Dawley rat cerebral cortex membrane at 10 uM by radiometric competitive assay; type: tissue-based
[8] = Antiproliferative activity against human GBM2 cells assessed as reduction in cell viability at 10 uM incubated for 72 hrs by WST-1 method; type: functional; settings: GBM2, 72 h
GBM1 = test: Induction of apoptosis in human GBM1 cells assessed as loss of mitochondrial membrane potential at 10 uM after 2 hrs by JC-1 staining based fluorescence microscopy; type: functional, cell-based
[9] = biological target: Translocator protein (Rattus norvegicus) (UniProt P16257); test: Displacement of [3H]PK11195 from TSPO receptor in Sprague-Dawley rat cerebral cortex membrane at 1 nM by radiometric competitive assay; type: tissue-based
[10] = Antiproliferative activity against human GBM1 cells assessed as reduction in cell viability incubated for 72 hrs by WST-1 method; type: functional, cell-based; settings: GBM1, 72 h
[11] = Selectivity index, ratio of IC50 for normal human astrocytes to IC50 for human GBM3 cells
[12] = biological target: Translocator protein (Rattus norvegicus) (UniProt P16257); test: Displacement of [3H]PK11195 from TSPO receptor in Sprague-Dawley rat cerebral cortex membrane at 100 nM by radiometric competitive assay; type: tissue-based
[13] = biological target: Translocator protein (Rattus norvegicus) (UniProt P16257); test: Displacement of [3H]PK11195 from TSPO receptor in Sprague-Dawley rat cerebral cortex membrane at 10 nM by radiometric competitive assay; type: tissue-based
[14] = Cytotoxicity against normal human astrocytes assessed as cell viability incubated for 72 hrs by WST-1 method; type: cell-based; settings: Astrocyte
Translocator protein = Translocator protein (Rattus norvegicus, UniProt P16257); test: Displacement of [3H]PK11195 from TSPO receptor in Sprague-Dawley rat cerebral cortex membrane by radiometric competitive assay; type: tissue-based
[15] = Selectivity index, ratio of IC50 for normal human astrocytes to IC50 for human GBM1 cells
[16] = biological target: Translocator protein (Rattus norvegicus) (UniProt P16257); settings: Sprague-Dawley, Cerebral cortex, Membrane, 0.1 nM
GBM [17] = test: Tumoricidal effect in patient derived GBM 448T cells assessed as reduction in neurosphere formation at 20 uM after 1 to 2 weeks by 3D tumor clonogenic assay; type: functional, cell-based; settings: Homo sapiens
GBM [18] = test: Tumoricidal effect in patient derived GBM 025T cells assessed as reduction in neurosphere formation at 20 uM after 1 to 2 weeks by 3D tumor clonogenic assay; type: functional, cell-based; settings: Homo sapiens
GBM [19] = test: Tumoricidal effect in patient derived GBM 464T cells assessed as reduction in neurosphere formation at 20 uM after 1 to 2 weeks by 3D tumor clonogenic assay; type: functional, cell-based; settings: Homo sapiens
GBM [20] = test: Tumoricidal effect in patient derived GBM 096T cells assessed as reduction in neurosphere formation at 20 uM after 1 to 2 weeks by 3D tumor clonogenic assay; type: functional, cell-based; settings: Homo sapiens
GBM [21] = test: Tumoricidal effect in patient derived GBM 047T cells assessed as reduction in neurosphere formation at 20 uM after 1 to 2 weeks by 3D tumor clonogenic assay; type: functional, cell-based; settings: Homo sapiens

| Compound | Ratio IC50 [1] | IC50 [2] [µM] | inhibition at 10 µM [3] [%] | IC50 [4] [µM] | inhibition at 10 µM [5] [%] | inhibition [6] [%] | inhibition [7] [%] | inhibition at 10 µM [8] [%] | Activity (GBM1) | inhibition [9] [%] | IC50 [10] [µM] | Ratio IC50 [11] | inhibition [12] [%] | inhibition [13] [%] | IC50 [14] [µM] | Ratio IC50 [15] | further results |
| --- | --- | --- | --- | --- | --- | --- | --- | --- | --- | --- | --- | --- | --- | --- | --- | --- | --- |
| O=C(Nc1cccc(Cl)c1)Nc1cc2ncncc2cc1OCc1ccccc1Cl | >4 | 2.8 | 103 | 2.1 | 78.5 | 23 | 80 | 97.2 | Active | 2 | 2.6 | >4 | 14 | 6 | > 10 | >4 | IC50 (Translocator protein): 2.79 µM |
| N#CC(C#N)=NNc1cccc(Cl)c1 | – | – | – | – | – | – | – | – | Active | – | – | – | – | – | – | – | – |
| CN1C(=O)CN=C(c2ccccc2)c2cc(Cl)ccc21 | – | – | – | – | – | 85 | 97 | – | – | 0 | – | – | 34 | 2 | – | – | – |
| O=C(Nc1cc2ncncc2cc1OCc1ccc(Cl)cc1)Nc1cccc2ccccc12 | >1.5 | 7.7 | 98.8 | 4.5 | 97.1 | – | – | 98.5 | – | – | 7.9 | >1.5 | – | – | > 10 | >1.5 | – |
| CC/C(=C(\c1ccccc1)c1ccc(OCCN(C)C)cc1)c1ccccc1 [TAMOXIFEN] | >2.1 | 4.7 | 95.7 | 3.5 | 98.4 | – | – | 101 | – | – | 7.5 | >2.1 | – | – | > 10 | >2.1 | – |
| O=C(Nc1ccc(Cl)c(Cl)c1)Nc1cc2ncncc2cc1OCc1cccc(F)c1 | 4 | 2 | 104 | 1.5 | 98.6 | 42 | 86 | 99.1 | Active | 3 | 2.1 | 4 | 16 | 8 | 7.4 | 4 | IC50 (Translocator protein): 1.32 µM |
| O=C(Nc1ccc(Cl)c(Cl)c1)Nc1cc2ncncc2cc1OCc1ccccc1Cl | >7 | 1.2 | 104 | 1.3 | 87.5 | 57 | 84 | 98.9 | Active | 1 | 1.8 | >7 | 37 | 19 | > 10 | >7 | IC50 (Translocator protein): 0.447 µM |
| O=C(Nc1ccccc1F)Nc1cc2ncncc2cc1OCc1cccc(Cl)c1 | 1.6 | 7.5 | 58.8 | 4.4 | 73 | – | – | 82.3 | – | – | 4.2 | 1.6 | – | – | 8.7 | 1.6 | – |
| O=C(Nc1ccccc1F)Nc1cc2ncncc2cc1OCc1ccccc1F | 2.6 | 3.8 | 94.6 | 3.6 | 80.7 | – | – | 92.4 | – | – | 4.2 | 2.6 | – | – | 10 | 2.6 | – |
| O=C(Nc1cc2ncncc2cc1OCc1ccc(F)cc1)Nc1cccc2ccccc12 | 1.2 | 8.3 | 94.4 | 4.5 | 99.3 | – | – | 99 | – | – | 8.1 | 1.2 | – | – | 8.5 | 1.2 | – |
| CCC(C)N(C)C(=O)c1cc2ccccc2c(-c2ccccc2Cl)n1 (centres undefined) | – | – | – | – | – | 100 | – | – | – | 7 | – | – | 90 | 45 | – | – | inhibition [16]: 0% |
| Cn1nnc2c(C(N)=O)ncn2c1=O | – | – | – | – | – | – | – | – | – | – | – | – | – | – | – | – | Activity (GBM [17]): inactive; Activity (GBM [18]): inactive; Activity (GBM [19]): Active; Activity (GBM [20]): inactive; Activity (GBM [21]): Active |
| O=C(Nc1cc2ncncc2cc1OCc1cccc(F)c1)Nc1cccc2ccccc12 | >7.7 | 1.2 | 92.9 | 1.4 | 92.6 | 53 | 75 | 94.9 | Active | 3 | 1.3 | >7.7 | 34 | 9 | > 10 | >7.7 | IC50 (Translocator protein): 0.703 µM |
| O=C(Nc1cc2ncncc2cc1OCc1ccccc1Cl)Nc1cccc2ccccc12 | 1 | 2.7 | 100 | 2.9 | 97.3 | – | – | 98.1 | – | – | 2.9 | 1 | – | – | 2.3 | 1 | – |
| O=C(Nc1cccc(F)c1)Nc1cc2ncncc2cc1OCc1cccc(Cl)c1 | >1.5 | 8.3 | 54.5 | 7.8 | 73.2 | – | – | 76.3 | – | – | 3.7 | >1.5 | – | – | > 10 | >1.5 | – |
| O=C(Nc1ccccc1F)Nc1cc2ncncc2cc1OCc1ccccc1 | >1.8 | 5.9 | 75.5 | 4.5 | 72 | – | – | 83.7 | – | – | 6.1 | >1.8 | – | – | > 10 | >1.8 | – |
